# Reference: patent US20230391760A1, “HETEROCYCLIC GLP-1 AGONISTS” (Gasherbrum Bio, Inc., priority 2020, published 2023)
# pEC50: −log10 of the molar value.
# Biological target: GLP-1 Receptor (Homo sapiens, UniProt P43220)
# Assay: GLP-1R agonist cAMP stimulation assay (HEK293/GLP1R/CRE-LUC cells, cAMP dynamic 2 Kit)
# Type: cell-based
# Conditions: HEK293/CRE-Luc cell line stably expressing the GLP-1 Receptor, 30 min at 37° C.
# Procedure: Activation of GLP-1 receptor is known to stimulate cyclic AMP (cAMP) production in cells which indicates primary coupling to the Gαs subunit of the G protein heterotrimeric complex. […] To optimize functional activity directed toward Gαs coupling, a HEK293/CRE-Luc cell line developed by HDB stably expressing the GLP-1 Receptor was used. 200×concentration of compound working solutions were prepared (Agilent Technologies Bravo) with 1/2 log serial dilution in 384-well Echo LDV plate (Labcyte, Cat #LP-0200). 50 nL/well 200× concentration of compound working solutions were moved to 384-well white low volume plate (Greiner,Cat #784075) using Labcyte ECHO550. 1×10^5 cells/mL HEK293/GLP1R/CRE-LUC(HD Biosciences) cell suspensions prepared with assay buffer[DPBS containing 0.5 mM IBMX(Sigma, Cat #15879) and 0.1% BSA (GENVIEW, Cat #FA016-100 g)], 10 uL cell suspensions were added to each well of previous generated assay plate which already contains 50 nl compound at 200×concentration using ThermoFisher Multidrop Combi (1000 cells/well). Seal the plate and incubate at 37° C. with 5% CO2 for 30 min. After incubation the cAMP assay signal was generated using cAMP dynamic 2 Kit (Cisbio). 5 μL cAMP-d2 working solution was added to each well, followed with 5 μL Anti-cAMP antibody-cryptate working solution added to each well using ThermoFisher Multidrop Combi. Incubate at room temperature for 1 hour protected from light.
# GLP-1 Receptor, sequence (P43220 24-463, species assumed): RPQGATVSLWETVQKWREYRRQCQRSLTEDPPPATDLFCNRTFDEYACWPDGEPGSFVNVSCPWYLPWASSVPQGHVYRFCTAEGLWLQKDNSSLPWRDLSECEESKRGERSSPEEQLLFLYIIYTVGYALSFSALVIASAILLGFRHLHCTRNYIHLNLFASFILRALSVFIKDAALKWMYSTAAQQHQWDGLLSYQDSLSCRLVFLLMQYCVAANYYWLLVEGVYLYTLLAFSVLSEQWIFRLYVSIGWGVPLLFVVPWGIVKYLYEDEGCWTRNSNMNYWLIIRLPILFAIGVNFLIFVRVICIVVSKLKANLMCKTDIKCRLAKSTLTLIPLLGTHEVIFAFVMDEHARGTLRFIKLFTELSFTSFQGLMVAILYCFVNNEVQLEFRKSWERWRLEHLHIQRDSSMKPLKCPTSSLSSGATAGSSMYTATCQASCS
row,pEC50,Structure (SMILES)
1,9.64,"Cc1nc(-c2noc(=O)[nH]2)cc2nc(CN3CCC(c4cccc5c4O[C@@](C)(c4ccc(Cl)cc4F)O5)CC3)n(C[C@@H]3CCO3)c12 [Compound 434a, 3-[2-({4-[(2S)-2-(4-chloro-2-fluorophenyl)-2-methyl-2H-1,3-benzodioxol-4-yl]piperidin-1-yl}methyl)-4-methyl-3-{[(2S)-oxetan-2-yl]methyl}-3H-imidazo[4,5-c]pyridin-6-yl]-4,5-dihydro-1,2,4-oxadiazol-5-one]"
2,9.28,"Cc1nnc(-c2cc3nc(CN4CCC(c5cccc6c5OC(c5ccc(Cl)cc5F)CO6)CC4)n(C[C@@H]4CCO4)c3cn2)[nH]1 (stereo partly drawn) [Compound 468a, 4-[3-(4-chloro-2-fluorophenyl)-2,3-dihydro-1,4-benzodioxin-5-yl]-1-{[6-(5-methyl-4H-1,2,4-triazol-3-yl)-3-{[(2S)-oxetan-2-yl]methyl}-3H-imidazo[4,5-c]pyridin-2-yl]methyl}piperidine]"
3,10.12,"CC1(c2ccc(Cl)nc2)Oc2cccc(C3CCN(Cc4nc5cc(-c6nnc(C(F)(F)F)[nH]6)ncc5n4C[C@@H]4CCO4)CC3)c2O1 (stereo partly drawn) [Compound 467a, 2-chloro-5-(2-methyl-4-{1-[(3-{[(2S)-oxetan-2-yl]methyl}-6-[5-(trifluoromethyl)-4H-1,2,4-triazol-3-yl]-3H-imidazo[4,5-c]pyridin-2-yl)methyl]piperidin-4-yl}-2H-1,3-benzodioxol-2-yl)pyridine]"
4,8.43,"CC1(c2ccc(Cl)cc2F)Oc2cccc(C3CCN(Cc4nc5cc(-c6cn[nH]c6)ccc5n4C[C@@H]4CCO4)CC3)c2O1 (stereo partly drawn) [Compound 234a, 2-((4-(2-(4-chloro-2-fluorophenyl)-2-methylbenzo[d][1,3]dioxol-4-yl)piperidin-1-yl)methyl)-1-(((S)-oxetan-2-yl)methyl)-5-(1H-pyrazol-4-yl)-1H-benzo[d]imidazole]"
5,10.11,"N#Cc1ccc(COc2cccc(C3=CCN(Cc4nc5cc(-c6noc(=O)[nH]6)cnc5n4C[C@@H]4CCO4)CC3)n2)c(F)c1 [Compound 322a, 3-fluoro-4-[({1′-[(3-{[(2S)-oxetan-2-yl]methyl}-6-(5-oxo-4,5-dihydro-1,2,4-oxadiazol-3-yl)-3H-imidazo[4,5-b]pyridin-2-yl)methyl]-1′,2′,3′,6′-tetrahydro-[2,4′-bipyridin]-6-yl}oxy)methyl]benzonitrile]"
6,10.21,"CC1(c2ccc(Cl)cn2)Oc2cccc(C3CCN(Cc4nc5cc(-c6nnn[nH]6)ncc5n4C[C@@H]4CCO4)CC3)c2O1 (stereo partly drawn) [Compound 450a, 5-chloro-2-(2-methyl-4-{1-[(3-{[(2S)-oxetan-2-yl]methyl}-6-(1H-1,2,3,4-tetrazol-5-yl)-3H-imidazo[4,5-c]pyridin-2-yl)methyl]piperidin-4-yl}-2H-1,3-benzodioxol-2-yl)pyridine]"
7,8.43,"CC1(c2ccc(Cl)cc2F)Oc2cccc(C3CCN(Cc4nc5cc(-c6noc(=O)[nH]6)cnc5n4C[C@H]4CCOC4)CC3)c2O1 (stereo partly drawn) [Compound 400a, 3-[2-({4-[2-(4-chloro-2-fluorophenyl)-2-methyl-2H-1,3-benzodioxol-4-yl]piperidin-1-yl}methyl)-3-{[(3R)-oxolan-3-yl]methyl}-3H-imidazo[4,5-b]pyridin-6-yl]-4,5-dihydro-1,2,4-oxadiazol-5-one]"
8,9.35,"CC1(c2ccc(Cl)cn2)Oc2c(F)ccc(C3CCN(Cc4nc5cc(-c6nnc(C(F)(F)F)[nH]6)nnc5n4C[C@@H]4CCO4)CC3)c2O1 (stereo partly drawn) [Compound 524a, 5-chloro-2-[4-fluoro-2-methyl-7-{1-[(7-{[(2S)-oxetan-2-yl]methyl}-3-[5-(trifluoromethyl)-4H-1,2,4-triazol-3-yl]-7H-imidazo[4,5-c]pyridazin-6-yl)methyl]piperidin-4-yl}-2H-1,3-benzodioxol-2-yl]pyridine]"
9,9.96,"N#Cc1ccc(COc2cc(C3CCN(Cc4nc5cc(-c6nnc(C(F)(F)F)[nH]6)ncc5n4C[C@@H]4CCO4)CC3)ccc2F)c(F)c1 [Compound 471a, 3-fluoro-4-[(2-fluoro-5-{1-[(3-{[(2S)-oxetan-2-yl]methyl}-6-[5-(trifluoromethyl)-4H-1,2,4-triazol-3-yl]-3H-imidazo[4,5-c]pyridin-2-yl)methyl]piperidin-4-yl}phenoxy)methyl]benzonitrile]"
